Results on ten compounds are retold here after ChEMBL document CHEMBL3763102, “4-Aryl-3-arylsulfonyl-quinolines as negative allosteric modulators of metabotropic GluR5 receptors: From HTS hit to development candidate” (Bioorg Med Chem Lett, 2016).

The source made the active and inactive calls. The calls are words filed in the database; no cut-off is given here.

Series [1] has as its system Liver microsome. The experiment in a line: Intrinsic clearance in Wistar rat liver microsomes at 2.5 uM. Type of series: ADME.
Series [2] deals with Liver microsome. The experiment in a line: Intrinsic clearance in human liver microsomes at 2.5 uM. Type of series: ADME. For orientation: Liver microsomes are a subcellular fraction often used to study metabolism.
The target of series [3] is T1, Metabotropic glutamate receptor 5 (Rattus norvegicus, UniProt P31424). The experiment in a line: Displacement of [3H]MPEP from rat mGlu5 receptor expressed in rat cerebrocortical membrane measured after 1 hr. It counts as cell membranes. For orientation: Loss of bound radioactivity is the signal in a displacement assay; it reports binding, not function.
T1 sequence (P31424 whole entry): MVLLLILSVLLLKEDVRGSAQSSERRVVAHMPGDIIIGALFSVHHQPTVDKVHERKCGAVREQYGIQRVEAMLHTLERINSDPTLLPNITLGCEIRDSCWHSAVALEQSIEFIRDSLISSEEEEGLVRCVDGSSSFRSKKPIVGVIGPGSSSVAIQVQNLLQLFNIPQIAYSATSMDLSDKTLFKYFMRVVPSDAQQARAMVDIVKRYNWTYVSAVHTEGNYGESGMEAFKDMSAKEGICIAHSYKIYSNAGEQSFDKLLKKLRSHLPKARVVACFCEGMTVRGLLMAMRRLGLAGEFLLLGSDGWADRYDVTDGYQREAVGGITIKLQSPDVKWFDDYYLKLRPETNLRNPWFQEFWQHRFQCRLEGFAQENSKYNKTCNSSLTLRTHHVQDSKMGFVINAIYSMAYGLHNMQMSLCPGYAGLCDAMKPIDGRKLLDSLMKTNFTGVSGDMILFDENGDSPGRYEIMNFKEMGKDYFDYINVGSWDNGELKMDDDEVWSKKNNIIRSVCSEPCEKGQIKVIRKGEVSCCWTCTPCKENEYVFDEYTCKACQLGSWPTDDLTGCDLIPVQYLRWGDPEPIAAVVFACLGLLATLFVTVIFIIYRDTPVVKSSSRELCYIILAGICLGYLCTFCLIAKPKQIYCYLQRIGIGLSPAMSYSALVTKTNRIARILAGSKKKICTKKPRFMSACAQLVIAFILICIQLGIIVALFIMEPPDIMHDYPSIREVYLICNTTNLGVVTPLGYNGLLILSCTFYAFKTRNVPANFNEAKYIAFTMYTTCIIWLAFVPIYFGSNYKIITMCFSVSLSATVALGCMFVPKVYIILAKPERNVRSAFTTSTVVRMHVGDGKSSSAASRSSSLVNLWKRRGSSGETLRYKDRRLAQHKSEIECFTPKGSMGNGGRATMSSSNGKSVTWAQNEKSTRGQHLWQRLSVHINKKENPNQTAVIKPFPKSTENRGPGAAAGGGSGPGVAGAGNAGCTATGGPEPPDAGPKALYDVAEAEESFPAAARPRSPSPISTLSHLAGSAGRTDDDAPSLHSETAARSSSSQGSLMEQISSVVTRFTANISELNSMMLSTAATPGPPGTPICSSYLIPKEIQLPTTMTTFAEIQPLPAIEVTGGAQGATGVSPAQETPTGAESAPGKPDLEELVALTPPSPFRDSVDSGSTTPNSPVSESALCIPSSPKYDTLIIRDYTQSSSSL
Series [4] addresses T2, Metabotropic glutamate receptor 5 (Homo sapiens, UniProt P41594). The series is described as follows: Displacement of [3H]MPEP from recombinant human mGluR5a expressed in A18 cells measured after 1 hr. Type of series: cell-based.
Series [5] deals with Homo sapiens. The series is described as follows: Toxicity in human assessed as suicidal ideation and behavior administered as qd for 10 to 14 days by multiple ascending dose study. It counts as organism-based. To be noted: in vivo.
The species entered for series [6] is Homo sapiens. The series is described as follows: Toxicity in human at 1 to 120 mg by single ascending dose study. Type of series: organism-based. To be noted: in vivo.
Series [7] relates to Rattus norvegicus. The series is described as follows: Anxiolytic activity in water deprived rat assessed as increase in number of accepted shocks at 1 mg/kg, po after 1 hr by Vogel punished drinking test. It counts as functional, organism-based.
In series [8] the test system is Homo sapiens. The series is described as follows: Toxicity in human assessed as change in ECG administered as bid for 10 to 14 days by multiple ascending dose study. To be noted: in vivo. It counts as organism-based.
Series [9] concerns Homo sapiens. The experiment in a line: Toxicity in human assessed as suicidal ideation and behavior administered as bid for 10 to 14 days by multiple ascending dose study. Type of series: organism-based. The settings on record: in vivo.
Series [10] has as its system Homo sapiens. The series is described as follows: Toxicity in human assessed as change in ECG administered as qd for 10 to 14 days by multiple ascending dose study. The settings on record: in vivo. Type of series: organism-based.
The subject of series [11] is Rattus norvegicus. The experiment in a line: Anxiolytic activity in water deprived rat assessed as increase in number of accepted shocks at 10 mg/kg, po after 1 hr by Vogel punished drinking test. Type of series: functional, organism-based.
In series [12] the target is T1, Metabotropic glutamate receptor 5. The experiment in a line: Displacement of [3H]-MPEP from rat mGlu5 receptor expressed in HEK293 cell membranes after 1 hr by scintillation counting analysis.
Series [13] has as its target T2, Metabotropic glutamate receptor 5. The experiment in a line: Displacement of [3H]-MPEP from human mGlu5 receptor expressed in HEK293 cell membranes after 1 hr by scintillation counting analysis.

T2 sequence (P41594 whole entry): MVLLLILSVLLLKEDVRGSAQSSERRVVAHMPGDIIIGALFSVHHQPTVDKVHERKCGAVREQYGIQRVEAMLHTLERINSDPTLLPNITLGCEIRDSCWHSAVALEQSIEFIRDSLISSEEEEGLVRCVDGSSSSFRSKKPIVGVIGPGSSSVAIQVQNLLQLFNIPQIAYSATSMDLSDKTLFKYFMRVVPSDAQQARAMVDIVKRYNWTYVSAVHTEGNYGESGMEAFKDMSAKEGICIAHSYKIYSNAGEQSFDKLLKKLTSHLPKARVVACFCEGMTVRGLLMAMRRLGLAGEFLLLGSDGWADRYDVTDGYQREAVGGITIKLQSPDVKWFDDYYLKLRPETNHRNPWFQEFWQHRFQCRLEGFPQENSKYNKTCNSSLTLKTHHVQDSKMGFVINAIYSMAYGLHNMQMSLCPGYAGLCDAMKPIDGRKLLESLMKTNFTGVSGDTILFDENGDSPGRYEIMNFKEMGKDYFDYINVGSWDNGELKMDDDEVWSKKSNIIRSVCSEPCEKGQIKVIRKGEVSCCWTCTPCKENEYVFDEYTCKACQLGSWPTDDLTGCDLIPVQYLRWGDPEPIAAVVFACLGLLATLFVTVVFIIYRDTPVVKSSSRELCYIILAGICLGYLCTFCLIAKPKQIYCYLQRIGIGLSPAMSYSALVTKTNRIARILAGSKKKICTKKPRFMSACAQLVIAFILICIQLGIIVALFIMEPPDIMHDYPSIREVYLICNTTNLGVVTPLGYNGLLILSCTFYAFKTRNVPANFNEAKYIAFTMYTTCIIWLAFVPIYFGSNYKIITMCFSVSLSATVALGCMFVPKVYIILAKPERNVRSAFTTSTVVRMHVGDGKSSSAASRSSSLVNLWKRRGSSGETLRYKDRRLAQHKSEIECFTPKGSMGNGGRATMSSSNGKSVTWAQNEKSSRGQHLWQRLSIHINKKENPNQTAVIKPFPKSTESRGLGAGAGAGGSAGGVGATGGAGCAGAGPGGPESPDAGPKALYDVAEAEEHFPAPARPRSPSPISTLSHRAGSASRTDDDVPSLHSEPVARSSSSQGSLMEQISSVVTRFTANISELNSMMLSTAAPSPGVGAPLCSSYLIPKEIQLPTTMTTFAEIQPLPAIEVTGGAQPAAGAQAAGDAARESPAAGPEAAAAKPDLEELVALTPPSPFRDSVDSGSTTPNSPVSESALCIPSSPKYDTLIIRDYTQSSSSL

In general, Ki refers to a measure of affinity in units of concentration, obtained from inhibition or displacement. With `Cc1ccc(S(=O)(=O)c2cnc3ccccc3c2N2CCC(C)CC2)cc1`, the CLH in the series on Liver microsome [1] came to 17.4 mL/min/g; in the series with Liver microsome [2], 3.54 mL/min/g. The same compound had an inhibition constant (Ki) in series [3] of 0.022 µM.
The matching figures for `O=S(=O)(c1ccc(Cl)c(F)c1)c1cnc2cc(F)ccc2c1-c1ccc(F)cc1`: 0.88 mL/min/g, 0.5 mL/min/g and 0.0052 µM.
Turning to `O=S(=O)(c1cc(Cl)cc(Cl)c1)c1cnc2cc(F)ccc2c1-c1ccc(F)cc1`, the CLH with Liver microsome [1] amounted to 1.03 mL/min/g; in the series with Liver microsome [2], 0.2 mL/min/g. In addition, the inhibitory constant (Ki) in series [3] was 0.0115 µM.
Take `Cc1ccc(S(=O)(=O)c2cnc3ccccc3c2N2CCOCC2)cc1C`: the values for the CLH with Liver microsome [1] and with Liver microsome [2] were 18 mL/min/g and 3.37 mL/min/g, respectively. For the same compound, the Ki in [4] worked out at 0.052 µM; in [3], 0.068 µM.
As for `N#Cc1cccc(S(=O)(=O)c2cnc3cc(F)ccc3c2-c2ccc(Cl)cc2)c1`, the CLH was 0.25 mL/min/g with Liver microsome [1] and 0.31 mL/min/g with Liver microsome [2]. For the same compound, the Activity entry in the series on Homo sapiens [5], in the series filed under Homo sapiens [6], in the series with Homo sapiens [8], in the series on Homo sapiens [9] and with Homo sapiens [10] was “Non-toxic” each time. For the same compound, the result with Rattus norvegicus [7] was Active. Also, the affinity in series [3], expressed as Ki, was 0.0053 µM.
In the case of `Cc1nc(C#Cc2cccnc2)cs1`, the outcome with Rattus norvegicus [11] was Active.
As usually defined, the IC50 is the concentration that gives 50% inhibition. The low end stands for higher potency, the high end for lower potency. Regarding `CN1CC(=O)N=C1NC(=O)Nc1cccc(Cl)c1` [FENOBAM ANHYDROUS], the IC50 in series [12] and in series [13] was 0.051 µM throughout.
Consider `Cc1ccc(S(=O)(=O)c2cnc3ccccc3c2-c2ccc(Cl)cc2)cc1`, for which the CLH was found to be 17.5 mL/min/g in the series on Liver microsome [1] and 2.12 mL/min/g in the series with Liver microsome [2]. For the same compound, the values for the inhibition constant (Ki) in [4] and in series [3] were 0.017 µM and 0.0095 µM, respectively.
`Cc1ccc(S(=O)(=O)c2sc3ncccc3c2-c2ccc(Cl)cc2)cc1`: the results for the CLH with Liver microsome [1] and with Liver microsome [2] were 13.8 mL/min/g and 2.31 mL/min/g, respectively. Moreover, the Ki in series [3] stood at 0.015 µM.
`O=S(=O)(c1ccc(F)c(F)c1)c1cnc2c(F)cccc2c1-c1ccc(Cl)cc1`: the CLH amounted to 0.19 mL/min/g with Liver microsome [1] and 0.28 mL/min/g in the series with Liver microsome [2]. This compound had a Ki in [3] of 0.0084 µM.
